Source: ChEMBL document CHEMBL1138774, “Potent and selective ketoamide-based inhibitors of cysteine protease, cathepsin K” (J Med Chem, 2004)

Columns and labels:
[1] = target: Cathepsin (L and K) (Homo sapiens) (UniProt P43235+P07711); assay: Selectivity for human cathepsin L over human cathepsin K; format: protein assay
[2] = target: Cathepsin (V and K) (Homo sapiens) (UniProt P43235+O60911); assay: Selectivity for human cathepsin V over human cathepsin K; format: protein assay
[3] = target: Cathepsin (H and K) (Homo sapiens) (UniProt P09668+P43235); assay: Selectivity for human cathepsin H over human cathepsin K; format: protein assay
Cathepsin (H and K) (Homo sapiens), sequence (P09668 whole entry, looked up, one chain of several): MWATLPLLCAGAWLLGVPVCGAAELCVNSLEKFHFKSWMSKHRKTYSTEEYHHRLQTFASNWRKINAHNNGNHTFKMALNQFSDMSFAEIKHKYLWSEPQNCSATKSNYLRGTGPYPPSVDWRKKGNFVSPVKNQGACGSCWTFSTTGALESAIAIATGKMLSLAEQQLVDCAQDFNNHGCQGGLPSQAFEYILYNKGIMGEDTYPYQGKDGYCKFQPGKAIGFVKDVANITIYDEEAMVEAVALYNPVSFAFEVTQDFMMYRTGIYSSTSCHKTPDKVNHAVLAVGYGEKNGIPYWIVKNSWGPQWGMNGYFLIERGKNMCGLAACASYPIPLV

[4] = target: Cathepsin (S and K) (Homo sapiens) (UniProt P25774+P43235); assay: Selectivity for human cathepsin S over human cathepsin K; format: protein assay
Cathepsin (S and K) (Homo sapiens), sequence (P25774 whole entry, looked up, one chain of several): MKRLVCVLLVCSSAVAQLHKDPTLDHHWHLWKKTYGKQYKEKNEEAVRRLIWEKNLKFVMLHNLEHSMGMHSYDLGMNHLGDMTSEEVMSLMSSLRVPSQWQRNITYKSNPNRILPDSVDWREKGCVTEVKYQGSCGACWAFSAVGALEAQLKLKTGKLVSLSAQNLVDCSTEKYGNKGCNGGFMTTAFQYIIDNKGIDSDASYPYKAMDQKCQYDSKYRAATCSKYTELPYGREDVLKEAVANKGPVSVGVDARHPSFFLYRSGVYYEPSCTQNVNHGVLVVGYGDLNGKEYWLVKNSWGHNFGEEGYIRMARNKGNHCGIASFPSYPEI

Cathepsin K = target: T1, Cathepsin K (Homo sapiens, UniProt P43235); assay: Inhibitory potency against human Cathepsin K
T1 sequence (P43235 whole entry): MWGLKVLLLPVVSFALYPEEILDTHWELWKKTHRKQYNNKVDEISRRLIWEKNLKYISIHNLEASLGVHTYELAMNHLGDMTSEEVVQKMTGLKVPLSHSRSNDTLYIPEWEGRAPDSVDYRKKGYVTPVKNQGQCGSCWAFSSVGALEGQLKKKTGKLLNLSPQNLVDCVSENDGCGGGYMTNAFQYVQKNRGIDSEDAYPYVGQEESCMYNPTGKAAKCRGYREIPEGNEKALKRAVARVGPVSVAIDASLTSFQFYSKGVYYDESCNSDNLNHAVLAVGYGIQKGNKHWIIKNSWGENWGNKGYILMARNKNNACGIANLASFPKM

[5] = target: Cathepsin (B and K) (Homo sapiens) (UniProt P43235+P07858); assay: Selectivity for human cathepsin B over human cathepsin K; format: protein assay

Cathepsin (L and K) (Homo sapiens), sequence (P07711 whole entry, looked up, one chain of several): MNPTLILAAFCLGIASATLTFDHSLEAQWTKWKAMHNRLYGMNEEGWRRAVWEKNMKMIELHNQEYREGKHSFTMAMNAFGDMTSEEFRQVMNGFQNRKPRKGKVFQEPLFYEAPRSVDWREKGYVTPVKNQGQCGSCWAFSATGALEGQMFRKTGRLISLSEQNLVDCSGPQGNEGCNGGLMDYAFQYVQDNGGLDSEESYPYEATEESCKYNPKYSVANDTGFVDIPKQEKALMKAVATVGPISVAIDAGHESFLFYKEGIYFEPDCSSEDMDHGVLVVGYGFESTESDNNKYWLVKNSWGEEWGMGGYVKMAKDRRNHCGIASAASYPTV
Cathepsin (V and K) (Homo sapiens), sequence (O60911 whole entry, looked up, one chain of several): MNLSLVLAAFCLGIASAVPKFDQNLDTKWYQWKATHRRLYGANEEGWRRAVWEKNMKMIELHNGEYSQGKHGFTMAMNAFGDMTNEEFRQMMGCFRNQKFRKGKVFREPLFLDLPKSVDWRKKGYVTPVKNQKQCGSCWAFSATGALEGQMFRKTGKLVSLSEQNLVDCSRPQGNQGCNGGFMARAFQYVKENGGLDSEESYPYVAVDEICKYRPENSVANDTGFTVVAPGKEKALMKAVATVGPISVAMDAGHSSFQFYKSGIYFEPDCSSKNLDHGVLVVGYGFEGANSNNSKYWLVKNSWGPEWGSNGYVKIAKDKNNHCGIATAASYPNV

Row | Selectivity [1] | Selectivity [2] | Selectivity [3] | Selectivity [4] | IC50 (Cathepsin K) [nM] | Selectivity [5] | Structure (SMILES)
1 | 270 | 49 | > 280 | 14 | 45 | > 280 | CCCC[C@H](NC(=O)OCC1(CC)CCC1)C(=O)C(=O)Nc1ccnn1C1CCC1
2 |  |  |  |  | 68 |  | CCCC[C@H](NC(=O)OCC1(CC)COC1)C(=O)C(=O)N[C@H](C)c1ccccc1
3 |  |  |  |  | 10 |  | CCCC[C@H](NC(=O)OCC1(CC)COC1)C(=O)C(=O)Nc1cc(-c2ccccc2)n[nH]1
4 | > 250 | 102 | > 250 | 33 | 51 | > 250 | CCCC[C@H](NC(=O)OCC1(CC)CCC1)C(=O)C(=O)Nc1ccnn1CC1CC1
5 | > 170 | 89 | > 170 | 14 | 76 | > 170 | CCCC[C@H](NC(=O)OCC1(CC)CCC1)C(=O)C(=O)Nc1ccnn1CC(C)C
6 |  |  |  |  | 20 |  | CCCC[C@H](NC(=O)OCC1(CC)CCC1)C(=O)C(=O)Nc1ccon1
